These results are taken from the NIST ThermoML archive (doi:10.1016/j.jct.2011.11.021).

Each structure is given as a SMILES string. ± gives the expanded uncertainty stated by the source.

The first data set in a line: activity coefficient (dimensionless); of the first substance listed, at infinite dilution; xn = mol fraction of the nth substance listed. As to conditions: 348.15 K; Liquid; Chromatography; x1 = 0.
In the case of `CCCCCCCCC` [nonane] + COCC[N+]1(C)CCOCC1.O=S(=O)([N-]S(=O)(=O)C(F)(F)F)C(F)(F)F, the activity coefficient stood at 85.6 ± 5.9.
Same read-out and setting: under `C1CCCCC1` [cyclohexane] + COCC[N+]1(C)CCOCC1.O=S(=O)([N-]S(=O)(=O)C(F)(F)F)C(F)(F)F stands 14.4 ± 1.
Turning to `C1CCOC1` [tetrahydrofuran] + COCC[N+]1(C)CCOCC1.O=S(=O)([N-]S(=O)(=O)C(F)(F)F)C(F)(F)F, the activity coefficient is 0.882 ± 0.056.
Same read-out and setting: under `Cc1ccccc1` [toluene] + COCC[N+]1(C)CCOCC1.O=S(=O)([N-]S(=O)(=O)C(F)(F)F)C(F)(F)F stands 1.99 ± 0.14; under `CCCC=O` [butanal] + COCC[N+]1(C)CCOCC1.O=S(=O)([N-]S(=O)(=O)C(F)(F)F)C(F)(F)F, 0.902 ± 0.057.
As for `C=CCCCCCCCC` [1-decene] + COCC[N+]1(C)CCOCC1.O=S(=O)([N-]S(=O)(=O)C(F)(F)F)C(F)(F)F, the activity coefficient amounted to 65.7 ± 4.5.
On the same count and under the same terms, under `CCC[N+](=O)[O-]` [1-nitropropane] + COCC[N+]1(C)CCOCC1.O=S(=O)([N-]S(=O)(=O)C(F)(F)F)C(F)(F)F stands 0.783 ± 0.051.
Still for that read-out and setting: in the case of `CCCO` [propan-1-ol] + COCC[N+]1(C)CCOCC1.O=S(=O)([N-]S(=O)(=O)C(F)(F)F)C(F)(F)F it was 1.79 ± 0.12.
In the case of `C1=CCCCC1` [cyclohexene] + COCC[N+]1(C)CCOCC1.O=S(=O)([N-]S(=O)(=O)C(F)(F)F)C(F)(F)F, the activity coefficient was 7.84 ± 0.53.
The same measure, in the same setting: under `CCCCCC` [hexane] + COCC[N+]1(C)CCOCC1.O=S(=O)([N-]S(=O)(=O)C(F)(F)F)C(F)(F)F stands 27.2 ± 1.9; under `C=CCCCCCC` [oct-1-ene] + COCC[N+]1(C)CCOCC1.O=S(=O)([N-]S(=O)(=O)C(F)(F)F)C(F)(F)F, 30.1 ± 2.1; under `CCC(=O)CC` [pentan-3-one] + COCC[N+]1(C)CCOCC1.O=S(=O)([N-]S(=O)(=O)C(F)(F)F)C(F)(F)F, 0.941 ± 0.059.
Still for that read-out and setting: under `CCC(C)(C)C` [2,2-dimethylbutane] + COCC[N+]1(C)CCOCC1.O=S(=O)([N-]S(=O)(=O)C(F)(F)F)C(F)(F)F stands 23.2 ± 1.6; under `C1CCCC1` [cyclopentane] + COCC[N+]1(C)CCOCC1.O=S(=O)([N-]S(=O)(=O)C(F)(F)F)C(F)(F)F, 9.68 ± 0.66.
As to `CCOC(C)=O` [ethyl acetate] + COCC[N+]1(C)CCOCC1.O=S(=O)([N-]S(=O)(=O)C(F)(F)F)C(F)(F)F, the activity coefficient was found to be 1.03 ± 0.06.
Same read-out and setting: under `Cc1cccc(C)c1` [1,3-dimethylbenzene] + COCC[N+]1(C)CCOCC1.O=S(=O)([N-]S(=O)(=O)C(F)(F)F)C(F)(F)F stands 2.97 ± 0.2; under `C=CCCCCC` [1-heptene] + COCC[N+]1(C)CCOCC1.O=S(=O)([N-]S(=O)(=O)C(F)(F)F)C(F)(F)F, 20.3 ± 1.4; under `COC(C)=O` [methyl ethanoate] + COCC[N+]1(C)CCOCC1.O=S(=O)([N-]S(=O)(=O)C(F)(F)F)C(F)(F)F, 0.729 ± 0.048.

Staying with this data set, now noted: 358.15 K; Liquid; Chromatography; x1 = 0.
With `CCCCCCCCC` [nonane] + COCC[N+]1(C)CCOCC1.O=S(=O)([N-]S(=O)(=O)C(F)(F)F)C(F)(F)F, the activity coefficient was 76.3 ± 5.2.
In the case of `C1CCCCC1` [cyclohexane] + COCC[N+]1(C)CCOCC1.O=S(=O)([N-]S(=O)(=O)C(F)(F)F)C(F)(F)F, the activity coefficient is 13.3 ± 0.9.
Still for that read-out and setting: under `C1CCOC1` [tetrahydrofuran] + COCC[N+]1(C)CCOCC1.O=S(=O)([N-]S(=O)(=O)C(F)(F)F)C(F)(F)F stands 0.888 ± 0.057; under `Cc1ccccc1` [toluene] + COCC[N+]1(C)CCOCC1.O=S(=O)([N-]S(=O)(=O)C(F)(F)F)C(F)(F)F, 1.98 ± 0.13.
On the same count and under the same terms, in the case of `CCCC=O` [butanal] + COCC[N+]1(C)CCOCC1.O=S(=O)([N-]S(=O)(=O)C(F)(F)F)C(F)(F)F it was 0.909 ± 0.058; in that of `C=CCCCCCCCC` [1-decene] + COCC[N+]1(C)CCOCC1.O=S(=O)([N-]S(=O)(=O)C(F)(F)F)C(F)(F)F, 59.4 ± 4.1.
On the same count and under the same terms, under `CCC[N+](=O)[O-]` [1-nitropropane] + COCC[N+]1(C)CCOCC1.O=S(=O)([N-]S(=O)(=O)C(F)(F)F)C(F)(F)F stands 0.78 ± 0.051.
For the compound `CCCO` [propan-1-ol] + COCC[N+]1(C)CCOCC1.O=S(=O)([N-]S(=O)(=O)C(F)(F)F)C(F)(F)F, the activity coefficient worked out at 1.63 ± 0.11.
Same read-out and setting: under `C1=CCCCC1` [cyclohexene] + COCC[N+]1(C)CCOCC1.O=S(=O)([N-]S(=O)(=O)C(F)(F)F)C(F)(F)F stands 7.45 ± 0.51; under `CCCCCC` [hexane] + COCC[N+]1(C)CCOCC1.O=S(=O)([N-]S(=O)(=O)C(F)(F)F)C(F)(F)F, 25 ± 1.7; under `C=CCCCCCC` [oct-1-ene] + COCC[N+]1(C)CCOCC1.O=S(=O)([N-]S(=O)(=O)C(F)(F)F)C(F)(F)F, 27.5 ± 1.9.
Still for that read-out and setting: under `CCC(=O)CC` [pentan-3-one] + COCC[N+]1(C)CCOCC1.O=S(=O)([N-]S(=O)(=O)C(F)(F)F)C(F)(F)F stands 0.952 ± 0.06; under `CCC(C)(C)C` [2,2-dimethylbutane] + COCC[N+]1(C)CCOCC1.O=S(=O)([N-]S(=O)(=O)C(F)(F)F)C(F)(F)F, 21.2 ± 1.4.
The same measure, in the same setting: under `C1CCCC1` [cyclopentane] + COCC[N+]1(C)CCOCC1.O=S(=O)([N-]S(=O)(=O)C(F)(F)F)C(F)(F)F stands 9.1 ± 0.62; under `CCOC(C)=O` [ethyl acetate] + COCC[N+]1(C)CCOCC1.O=S(=O)([N-]S(=O)(=O)C(F)(F)F)C(F)(F)F, 1.04 ± 0.07; under `Cc1cccc(C)c1` [1,3-dimethylbenzene] + COCC[N+]1(C)CCOCC1.O=S(=O)([N-]S(=O)(=O)C(F)(F)F)C(F)(F)F, 2.94 ± 0.2.
As for `C=CCCCCC` [1-heptene] + COCC[N+]1(C)CCOCC1.O=S(=O)([N-]S(=O)(=O)C(F)(F)F)C(F)(F)F, the activity coefficient amounted to 19 ± 1.3.
Turning to `COC(C)=O` [methyl ethanoate] + COCC[N+]1(C)CCOCC1.O=S(=O)([N-]S(=O)(=O)C(F)(F)F)C(F)(F)F, the activity coefficient came out at 0.74 ± 0.049.

The same data set, now with this note: 368.15 K; Liquid; Chromatography; x1 = 0.
`CCCCCCCCC` [nonane] + COCC[N+]1(C)CCOCC1.O=S(=O)([N-]S(=O)(=O)C(F)(F)F)C(F)(F)F: the activity coefficient is 68.7 ± 4.7.
The same measure, in the same setting: under `C1CCCCC1` [cyclohexane] + COCC[N+]1(C)CCOCC1.O=S(=O)([N-]S(=O)(=O)C(F)(F)F)C(F)(F)F stands 12.3 ± 0.8; under `C1CCOC1` [tetrahydrofuran] + COCC[N+]1(C)CCOCC1.O=S(=O)([N-]S(=O)(=O)C(F)(F)F)C(F)(F)F, 0.895 ± 0.057; under `Cc1ccccc1` [toluene] + COCC[N+]1(C)CCOCC1.O=S(=O)([N-]S(=O)(=O)C(F)(F)F)C(F)(F)F, 1.97 ± 0.13.
In the case of `CCCC=O` [butanal] + COCC[N+]1(C)CCOCC1.O=S(=O)([N-]S(=O)(=O)C(F)(F)F)C(F)(F)F, the activity coefficient came out at 0.918 ± 0.058.
Still for that read-out and setting: under `C=CCCCCCCCC` [1-decene] + COCC[N+]1(C)CCOCC1.O=S(=O)([N-]S(=O)(=O)C(F)(F)F)C(F)(F)F stands 54.9 ± 3.8; under `CCC[N+](=O)[O-]` [1-nitropropane] + COCC[N+]1(C)CCOCC1.O=S(=O)([N-]S(=O)(=O)C(F)(F)F)C(F)(F)F, 0.778 ± 0.051; under `CCCO` [propan-1-ol] + COCC[N+]1(C)CCOCC1.O=S(=O)([N-]S(=O)(=O)C(F)(F)F)C(F)(F)F, 1.52 ± 0.1.
Same read-out and setting: under `C1=CCCCC1` [cyclohexene] + COCC[N+]1(C)CCOCC1.O=S(=O)([N-]S(=O)(=O)C(F)(F)F)C(F)(F)F stands 7.08 ± 0.48.
Same read-out and setting: under `CCCCCC` [hexane] + COCC[N+]1(C)CCOCC1.O=S(=O)([N-]S(=O)(=O)C(F)(F)F)C(F)(F)F stands 23.1 ± 1.6; under `C=CCCCCCC` [oct-1-ene] + COCC[N+]1(C)CCOCC1.O=S(=O)([N-]S(=O)(=O)C(F)(F)F)C(F)(F)F, 25.9 ± 1.8.
Regarding `CCC(=O)CC` [pentan-3-one] + COCC[N+]1(C)CCOCC1.O=S(=O)([N-]S(=O)(=O)C(F)(F)F)C(F)(F)F, the activity coefficient is 0.967 ± 0.061.
As for `CCC(C)(C)C` [2,2-dimethylbutane] + COCC[N+]1(C)CCOCC1.O=S(=O)([N-]S(=O)(=O)C(F)(F)F)C(F)(F)F, the activity coefficient came to 19.5 ± 1.3.
The same measure, in the same setting: under `C1CCCC1` [cyclopentane] + COCC[N+]1(C)CCOCC1.O=S(=O)([N-]S(=O)(=O)C(F)(F)F)C(F)(F)F stands 8.54 ± 0.58.
Regarding `CCOC(C)=O` [ethyl acetate] + COCC[N+]1(C)CCOCC1.O=S(=O)([N-]S(=O)(=O)C(F)(F)F)C(F)(F)F, the activity coefficient is 1.06 ± 0.07.
Still for that read-out and setting: under `Cc1cccc(C)c1` [1,3-dimethylbenzene] + COCC[N+]1(C)CCOCC1.O=S(=O)([N-]S(=O)(=O)C(F)(F)F)C(F)(F)F stands 2.92 ± 0.2; under `C=CCCCCC` [1-heptene] + COCC[N+]1(C)CCOCC1.O=S(=O)([N-]S(=O)(=O)C(F)(F)F)C(F)(F)F, 18.1 ± 1.2.
For `COC(C)=O` [methyl ethanoate] + COCC[N+]1(C)CCOCC1.O=S(=O)([N-]S(=O)(=O)C(F)(F)F)C(F)(F)F, the activity coefficient is 0.754 ± 0.05.
